{"source": "patent US20030158250A1", "about": "“Agents correcting gene expression regulatory error” (priority 2000, published 2003)", "key": {"[1]": {"tested_on": "interleukin-10 (IL-10)", "experiment": "LPS-induced IL-10 production in RAW 264.7 cells (ELISA)", "format": "cell-based", "conditions": "final concentration 20 μM, 5 hours, then LPS 18 hours, IL-10 in culture supernatant by ELISA", "experimental": "RAW 264.7 cells (ATCC TIB 71) were suspended in a Dulbecco's modified Eagle's medium (manufactured by Bio Whittaker; 12-604F) containing 10% fetal bovine serum (manufactured by Gibco), so as to have a concentration of 3×10^5 cells/ml. The cell suspension was added to each well of a 48-well microtiter plate in a volume of 0.5 ml each. The cells were cultured at 37° C. in the presence of 5% CO2 gas overnight. To each well was added 5 μl of a 2 mM DGE aqueous solution (final concentration: 20 μM), and the cells were cultured for additional 5 hours. Thereafter, 5 μl of a 100 μg/ml lipopolysaccharide (LPS, manufactured by Sigma, L-2012) aqueous solution was added thereto, and the cells were cultured for 18 hours, and thereafter the culture supernatant was recovered. The content of the interleukin-10 (IL-10) in the culture supernatant was assayed by the enzyme immuno-sandwich assay. Here, the group with no addition of DGE and LPS aqueous solution (control) was set as a negative control, and the group with addition of LPS aqueous solution (control+LPS) alone was set as a positive control. In addition, all of the assays were carried out twice."}, "[2]": {"tested_on": "HO1 protein", "experiment": "HO1 protein induction in RAW 264.7 cells (Western blot)", "format": "cell-based", "set-up": "key to Intensity of Bands of HO1 Protein: those showing no bands are indicated by “−,”; the intensities of the bands are indicated by +−, +, ++ in the ascending order of the intensities of the bands; the intensities of the bands are indicated by +−, +, ++ in the ascending order of the intensities of the bands; the intensities of the bands are indicated by +−, +, ++ in the ascending order of the intensities of the bands", "conditions": "15 hours", "experimental": "RAW 264.7 cells (ATCC TIB 71) were suspended in a Dulbecco's modified Eagle's medium (manufactured by Bio Whittaker; 12-604F) containing 10% fetal bovine serum (manufactured by Gibco), so as to have a concentration of 3×10^5 cells/ml. The cell suspension was added to each well of a 6-well microtiter plate in a volume of 5 ml each. The cells were cultured at 37° C. in the presence of 5% CO2 gas overnight. To each well was added 50 μl of 4 mM, 2 mM or 1 mM DGE aqueous solution (each of final concentrations: 40 μM, 20 μM or 10 μM), and the cells were cultured for 15 hours. […] The cells were harvested by peeling off the cells from the plate with a scraper. The harvested cells were suspended in 0.1 M Tris-HCl buffer (pH 7.5) containing 0.05 mM pepstatin (manufactured by Sigma, P5318), 0.2 mM leupeptin (manufactured by Sigma, L2884), 1 mM phenylmethylsulfonyl fluoride (manufactured by nakalai tesque, 273-27), 10 mM disodium dihydrogenethylenediaminetetraacetate and 0.1% Triton X-100, and subjected to freezing and thawing once. Thereafter, the supernatant obtained by centrifugation was used as a protein fraction. The protein content in the protein fraction was assayed by Micro BCA Protein Assay Reagent (one manufactured by Pierce sold by Takara Shuzo Co., Ltd., P7411). Each of the resulting protein fraction samples was mixed with an equal volume of 0.125 M Tris-HCl buffer (pH 6.8) containing 4% sodium lauryl sulfate (SDS), 2% 2-mercaptoethanol,\n0.001% Bromophenol Blue and 20% glycerol, and the mixture was treated at 100° C. for 5 minutes. A mixture containing a protein in an amount of 10 μg or so was loaded on 12.5% SDS-polyacrylamide gel, and electrophoresed with a constant current of 20 mA. In a blotting buffer containing 48 mM Tris, 39 mM glycine, 20% methanol, 0.0375% SDS, the gel after the electrophoresis was transferred to a PDVF membrane (manufactured by Millipore Corporation, IPVHOOO 10) in accordance with the attached protocol, using transblot SD cell semi-drive blotting device (manufactured by BioRad), at a constant voltage of 15 V for 25 minutes. The transferred PVDF membrane was blocked overnight in a Block Ace (manufactured by DAINIPPON PHARMACEUTICAL CO., LTD., UK-B25) solution at 4° C. The blocked membrane was washed for 15 minutes thrice with phosphate-buffered physiological saline containing 0.1% Tween 20 under gentle shaking. Thereafter, the membrane was subjected to the reaction under gentle shaking in phosphate-buffered physiological saline containing 10% Block Ace with a 200 ng/ml anti-HOl antibody (N-19, manufactured by Santa Cruz, sc-7696) and 0.1% Tween 20 at room temperature for 1 hour, and was washed for 15 minutes thrice with phosphate-buffered physiological saline containing 0.1% Tween 20 under gentle shaking. Next, the membrane was subjected to the reaction under gentle shaking in phosphate-buffered physiological saline with 10% Block Ace with 0.1% peroxidase-conjugated rabbit anti-goat IgG (H+L) antibody (manufactured by Zymed, 61-1620) and 0.1% Tween 20 at room temperature for 1 hour, and was washed for 15 minutes five times with phosphate-buffered physiological saline containing 0.1% Tween 20 under gentle shaking. Subsequently, a PVDF membrane was stained by using Western blot Chemiluminescence Reagent Plus (one manufactured by NEN Life Science Products sold by Daiichikagaku, NEL103) in accordance with the attached protocol, and sensitized on an X-ray film (manufactured by Kodak, CAT 1651454). The sensitized film was developed with FPM800 (manufactured by Fuji Photo Film Co., Ltd.).\nAs a result, there could be confirmed a band ascribed to HO1 protein in the group with addition of DGE. […] In the table, + symbols were given in accordance with the intensity of the band for HO1 protein. In other words, in Table 3, those showing no bands are indicated by “−,” and the intensities of the bands are indicated by +−, +, ++ in the ascending order of the intensities of the bands."}}}
{"smiles": "O=C1C=CC(CO)OC1O", "note": "[DGE, L-glycero-1,5-epoxy-1αβ,6-dihydroxy-cis-hex-3-en-2-one]", "values": [{"measurement": "inhibition of LPS-induced IL-10 production", "setting": "[1]", "result": "inhibition of LPS-induced IL-10 production was found"}, {"measurement": "induction action for HO production (band ascribed to HO1 protein)", "setting": "[2]; DGE at 10 to 40 μM", "result": "DGE concentration-dependent"}, {"measurement": "Intensity of Bands of HO1 Protein", "setting": "[2]; final concentration 10 μM", "result": "+−"}, {"measurement": "Intensity of Bands of HO1 Protein", "setting": "[2]; final concentration 20 μM", "result": "+"}, {"measurement": "Intensity of Bands of HO1 Protein", "setting": "[2]; final concentration 40 μM", "result": "++"}]}
